Patent US4260682A, “High sensitivity assays for angiotensin converting enzyme” (priority 1979, dated 1981)
Square brackets hold non-standard residues; d marks the D form. Ends that are not written are not given here. Peptide text beside a SMILES is read from it. pGlu = O=C1CC[C@@H](C(=O)O)N1

Assays:
[1] = test system: ACE; settings: cited from earlier work
[2] = target: T1, ACE (Oryctolagus cuniculus, UniProt P12822); settings: cited from earlier work
T1 sequence (P12822 34-1310): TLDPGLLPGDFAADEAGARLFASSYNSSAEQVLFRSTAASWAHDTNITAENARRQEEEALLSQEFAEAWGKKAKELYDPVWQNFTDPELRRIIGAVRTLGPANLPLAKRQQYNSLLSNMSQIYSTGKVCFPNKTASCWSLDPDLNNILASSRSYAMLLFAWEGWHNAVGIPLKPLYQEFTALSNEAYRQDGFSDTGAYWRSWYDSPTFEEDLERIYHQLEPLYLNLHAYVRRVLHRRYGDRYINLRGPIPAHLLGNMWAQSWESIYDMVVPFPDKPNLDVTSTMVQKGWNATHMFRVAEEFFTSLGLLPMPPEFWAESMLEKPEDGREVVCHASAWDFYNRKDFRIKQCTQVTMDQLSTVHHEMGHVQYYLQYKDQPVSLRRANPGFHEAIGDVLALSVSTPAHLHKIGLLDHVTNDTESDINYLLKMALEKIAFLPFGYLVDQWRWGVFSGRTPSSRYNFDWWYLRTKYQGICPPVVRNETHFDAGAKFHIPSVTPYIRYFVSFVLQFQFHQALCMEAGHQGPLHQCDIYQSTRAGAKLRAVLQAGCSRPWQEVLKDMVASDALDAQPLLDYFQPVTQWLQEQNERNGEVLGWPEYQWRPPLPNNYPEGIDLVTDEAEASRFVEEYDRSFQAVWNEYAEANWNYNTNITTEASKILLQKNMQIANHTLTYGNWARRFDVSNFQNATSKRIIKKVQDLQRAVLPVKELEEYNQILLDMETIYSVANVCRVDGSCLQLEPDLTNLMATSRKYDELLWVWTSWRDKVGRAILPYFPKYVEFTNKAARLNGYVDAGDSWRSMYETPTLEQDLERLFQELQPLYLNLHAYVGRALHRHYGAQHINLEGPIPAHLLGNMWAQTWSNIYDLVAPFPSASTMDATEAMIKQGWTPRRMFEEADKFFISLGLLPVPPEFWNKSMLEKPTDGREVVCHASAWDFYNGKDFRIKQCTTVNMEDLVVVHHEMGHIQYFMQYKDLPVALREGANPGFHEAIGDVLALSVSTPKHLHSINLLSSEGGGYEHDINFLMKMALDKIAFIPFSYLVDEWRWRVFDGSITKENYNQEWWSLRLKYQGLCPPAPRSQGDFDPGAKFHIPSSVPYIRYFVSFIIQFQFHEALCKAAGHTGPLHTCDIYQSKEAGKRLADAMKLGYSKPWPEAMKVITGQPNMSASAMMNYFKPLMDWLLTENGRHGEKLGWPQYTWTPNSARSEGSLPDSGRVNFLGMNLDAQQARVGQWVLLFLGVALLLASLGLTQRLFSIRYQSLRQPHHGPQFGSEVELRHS

[3] = target: ACE (Homo sapiens, UniProt P12821); assay: Comparison of sensitivity of ACE radioassays; type: biochemical
Sequence of ACE (Homo sapiens, UniProt P12821) (P12821 30-1306, species assumed): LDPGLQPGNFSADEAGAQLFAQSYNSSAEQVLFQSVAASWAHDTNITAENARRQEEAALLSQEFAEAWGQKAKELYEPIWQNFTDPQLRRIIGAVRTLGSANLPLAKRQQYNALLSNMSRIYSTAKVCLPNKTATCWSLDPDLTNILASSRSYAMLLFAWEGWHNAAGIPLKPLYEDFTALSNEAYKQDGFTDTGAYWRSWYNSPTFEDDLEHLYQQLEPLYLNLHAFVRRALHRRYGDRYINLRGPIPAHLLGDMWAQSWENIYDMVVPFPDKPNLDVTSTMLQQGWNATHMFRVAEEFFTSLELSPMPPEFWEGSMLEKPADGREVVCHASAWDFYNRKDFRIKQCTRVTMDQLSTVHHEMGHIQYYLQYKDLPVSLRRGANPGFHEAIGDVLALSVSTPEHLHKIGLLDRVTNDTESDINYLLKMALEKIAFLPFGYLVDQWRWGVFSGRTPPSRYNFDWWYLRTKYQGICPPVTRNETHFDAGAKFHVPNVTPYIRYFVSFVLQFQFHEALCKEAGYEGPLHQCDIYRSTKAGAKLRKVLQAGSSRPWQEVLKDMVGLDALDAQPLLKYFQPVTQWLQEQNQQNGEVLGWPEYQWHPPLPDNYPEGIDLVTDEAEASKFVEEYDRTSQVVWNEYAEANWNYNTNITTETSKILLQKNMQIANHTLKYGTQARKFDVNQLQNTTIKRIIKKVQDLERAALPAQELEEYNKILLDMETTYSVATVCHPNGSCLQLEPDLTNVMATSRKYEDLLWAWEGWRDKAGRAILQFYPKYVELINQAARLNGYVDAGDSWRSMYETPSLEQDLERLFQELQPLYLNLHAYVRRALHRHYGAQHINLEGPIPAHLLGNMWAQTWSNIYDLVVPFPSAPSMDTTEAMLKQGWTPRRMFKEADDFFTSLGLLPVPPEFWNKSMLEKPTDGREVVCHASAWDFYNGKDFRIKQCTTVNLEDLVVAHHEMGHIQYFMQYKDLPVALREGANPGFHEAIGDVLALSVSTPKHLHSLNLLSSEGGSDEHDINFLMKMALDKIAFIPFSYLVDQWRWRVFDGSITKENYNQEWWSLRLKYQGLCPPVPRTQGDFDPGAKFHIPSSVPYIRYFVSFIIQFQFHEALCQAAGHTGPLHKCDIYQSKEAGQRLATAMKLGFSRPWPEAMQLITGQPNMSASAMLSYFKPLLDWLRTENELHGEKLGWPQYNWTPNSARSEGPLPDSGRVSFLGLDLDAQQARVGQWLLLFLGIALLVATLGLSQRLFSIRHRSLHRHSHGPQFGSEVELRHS
Text: A comparison of the sensitivity of the disclosed assay methods with each other and with prior art assays may be made by considering assays which depend upon measuring the radioactivity of the remnant reaction product. A prior art assay of this type, using ^3 H-HipGlyGly as substrate has been described (Ryan and Chung, supra). Of the two assays disclosed herein, the sulfate stimulated hydrolysis of ^3 H-HipHisLeu is approximately 20 times more sensitive, and the ^3 H-benzoylPheAlaPro assay is about 10 times more sensitive still. The latter is therefore approximately 200 times more sensitive than the assay using ^3 H-HipGlyGly.

[4] = Extraction from the acidified reaction mixture into organic solvent; type: physicochemical
Procedure: (§1) An even more sensitive assay for ACE activity has been developed using the novel compound ^3 H-benzoylPheAlaPro as substrate. This new substrate can be used to assay ACE in human urine in incubations as short as 15 minutes. The response of this substrate to ions is strikingly different from the response of HipHisLeu. […] This difficulty has been solved by the proper choice of extracting solvent. While a variety of organic solvents may be suitable for the extraction step, it is preferred to employ toluene. Approximately 88% of ^3 H-benzoylPhe enters the toluene phase while only 6% of the unhydrolyzed substrate enters the toluene phase, when toluene and the acidified reaction mixture are in approximately equal volumes at room temperatures.

[5] = test system: ACE; assay: Sulfate and chloride effects on ACE catalysed hydrolysis (general description); type: biochemical; settings: 0.05 M Hepes, pH 8.0
Text: An assay for ACE, using HipHisLeu as substrate, is herewith described. The assay is more sensitive than any heretofore disclosed using HipHisLeu as substrate. Maximum sensitivity is achieved by the inclusion of sulfate ions, preferably as sodium sulfate, in the reaction mixture. When 0.1 M NaCl is present in the reaction mixture, sulfate ions are stimulatory from 0.1 M to at least 1.1 M. Maximum stimulation occurs in the range from 0.75 M to 1.1 M Na2 SO4.
as §1
The enzyme is active over a broad pH range with a maximum around pH 8.0, but is at least about 50% active in the range pH 7.0-pH 8.8, for both HipHisLeu and benzoylPheAlaPro. Although the enzyme is active in a variety of buffer systems known in the art, it is preferred for convenience, when using benzoylPheAlaPro as substrate, to conduct the assays in 0.05 M Hepes buffer, pH 8.0 containing 0.15 M sodium chloride. Detailed protocols for carrying out the assay are given in the examples. […] The preferred concentration range is 1×10^-9 M to 7×10^- 5 M.

[6] = target: T2, Guinea pig serum ACE (Cavia porcellus, UniProt H0UWL7); assay: Kinetics of benzoyl-Phe-Ala-Pro hydrolysis; settings: read-out: apparent Km; 0.05 M Hepes, pH 8.0, 0.15 M NaCl; Lineweaver and Burke plot
T2 sequence (H0UWL7 33-1234): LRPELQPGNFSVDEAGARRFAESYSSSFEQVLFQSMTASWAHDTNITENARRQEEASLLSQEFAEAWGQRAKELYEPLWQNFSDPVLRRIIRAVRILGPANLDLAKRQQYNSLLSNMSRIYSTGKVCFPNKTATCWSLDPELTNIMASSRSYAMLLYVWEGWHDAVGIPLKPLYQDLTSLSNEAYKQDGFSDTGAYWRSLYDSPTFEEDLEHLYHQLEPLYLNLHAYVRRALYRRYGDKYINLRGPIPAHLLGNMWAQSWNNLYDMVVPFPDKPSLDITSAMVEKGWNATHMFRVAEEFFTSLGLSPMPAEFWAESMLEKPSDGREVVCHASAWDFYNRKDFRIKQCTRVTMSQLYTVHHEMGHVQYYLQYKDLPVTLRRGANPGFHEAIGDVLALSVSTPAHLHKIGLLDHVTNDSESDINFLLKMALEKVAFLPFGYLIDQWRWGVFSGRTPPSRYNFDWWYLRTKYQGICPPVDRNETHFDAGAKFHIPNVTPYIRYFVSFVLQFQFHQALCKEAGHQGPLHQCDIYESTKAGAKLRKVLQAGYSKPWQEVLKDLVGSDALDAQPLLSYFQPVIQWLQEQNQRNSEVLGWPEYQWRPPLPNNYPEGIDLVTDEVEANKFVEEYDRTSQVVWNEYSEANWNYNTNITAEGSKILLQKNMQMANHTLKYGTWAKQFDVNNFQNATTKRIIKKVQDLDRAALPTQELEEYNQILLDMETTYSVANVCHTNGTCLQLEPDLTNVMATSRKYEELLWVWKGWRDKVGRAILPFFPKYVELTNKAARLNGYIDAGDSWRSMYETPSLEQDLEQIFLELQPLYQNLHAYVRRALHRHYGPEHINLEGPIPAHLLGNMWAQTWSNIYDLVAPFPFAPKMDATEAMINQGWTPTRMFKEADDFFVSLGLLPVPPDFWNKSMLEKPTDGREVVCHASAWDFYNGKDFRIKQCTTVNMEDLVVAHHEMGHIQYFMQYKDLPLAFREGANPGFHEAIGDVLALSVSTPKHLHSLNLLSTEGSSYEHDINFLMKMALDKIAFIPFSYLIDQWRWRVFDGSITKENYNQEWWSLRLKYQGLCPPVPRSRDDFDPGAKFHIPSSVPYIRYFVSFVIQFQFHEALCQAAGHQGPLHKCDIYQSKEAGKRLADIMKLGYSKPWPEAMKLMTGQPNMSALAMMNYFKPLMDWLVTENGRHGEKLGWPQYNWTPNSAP
Procedure: Kinetics of Benzoyl-Phe-Ala-Pro Hydrolysis
The apparent Km for the ACE catalyzed hydrolysis of benzoyl-Phe-Ala-Pro was measured in the following manner. […] Guinea pig serum was diluted 1:1000 to provide the enzyme. A mixture of 50 μl diluted serum and 50 μl of substrate, diluted in the reaction buffer to provide the appropriate substrate concentration for each experiment, was incubated at 37° C. for 10 minutes. At the end of the incubation, 1.0 ml of 0.1 M HCl was added to stop the reaction. The reaction mixture was then extracted with 1.0 ml toluene, and a 0.5 ml aliquot of the toluene phase was counted in a scintillation counter.

Molecule | competitive substrate of ACE [1] | substrate for the enzyme [2] | cleavage in the presence of chloride ([2]; vs. buffer of undisclosed composition) | sensitivity relative to the sulfate-stimulated HipHisLeu assay [3] | sensitivity relative to the assay using ^3 H-HipGlyGly ([3]; radioactivity of remnant product, HipHisLeu assay sulfate stimulated) | extraction into ethyl acetate ([4]; acidified with dilute hydrochloric acid) | fraction entering the toluene phase ([4]; toluene and acidified reaction mixture in approximately equal volumes, room temperature) | hydrolysis in the absence of any added salt [5] | Km [6]
NC(N)=NCCC[C@H](NC(=O)[C@H](Cc1ccccc1)NC(=O)[C@@H]1CCCN1C(=O)[C@H](CO)NC(=O)[C@H](Cc1ccccc1)NC(=O)CNC(=O)[C@@H]1CCCN1C(=O)[C@@H]1CCCN1C(=O)[C@@H](N)CCCN=C(N)N)C(=O)O [bradykinin, ArgProProGlyPheSerProPheArg] (H-RPPGFSPFR-OH) | competitive substrates | – | – | – | – | – | – | – | –
<GluLysTrpAlaPro ([pGlu]KWAP) [BPP5a] | competitive substrates | could serve as a substrate for the enzyme | proceeded more slowly in the presence of chloride | – | – | – | – | – | –
^3 H-benzoylPheAlaPro | – | – | – | about 10 times | approximately 200 times | extracted almost quantitatively into ethyl acetate | 6% | ACE will hydrolyze | 14 µM
